One data set deals with depressed rats. Description: Chronic unpredictable stress depression model, sucrose preference test. The class given is in vivo, rat. To be noted: 10 mg/kg, after 2 weeks of drug treatment, compared with model group, n = 8. The procedure: Forty rats were randomly divided into the following groups (n = 8): the normal control group, the model control group, the fluoxetine group (10 mg/kg), the paeoniflorin low-dose group (10 mg/kg), and the paeoniflorin high-dose group (20 mg/kg). Except for the blank control group, the groups were randomly exposed to two stressors, including behavioral constraints, ice water swimming, electric shock, cold stimulation, clip tail, wet bedding, light/dark reversed, shaking, foods and water deprivation, continuously for 8 weeks to establish a chronic unpredictable stress model. The sucrose preference test was performed at 0 and 14 days after administration.

Data set [1] in a line: Excretion of paeoniflorin in rats (urine, feces, bile). The format is in vivo, rat. The following applies: normal rats, oral paeoniflorin 20 mg/kg, excreted form = labelled substance, n = 6. Here is the method: Then, urine samples and feces samples were collected at 0, 6, 12, 24, 48, 72, and 96 h.
The nature of data set [2]: Pharmacokinetics of paeoniflorin in pseudo-germ-free (PGF) rats. The class given is in vivo. The following applies: SD, rat, in vivo, oral paeoniflorin 20 mg/kg, plasma analyte = labelled substance; for AUC(0-t) / Cmax: po, 20 mg/kg. Here is the method:
Chromatography separation was performed using an XSS T3 column (3.5 μm, 2.1 mm × 100 mm, Waters, Milford, MA, United States) with the column temperature maintained at 40°C at a flow rate of 0.4 mL/min. […] The gradient was as follows: 25% eluent B for 2 min; 25–85% B from 2 to 4 min; 85–25% B from 4 to 5 min and held at 25% from 5 to 7 min. The autosampler temperature was set to 4°C. Mass spectrometry was carried out using multiple reaction monitoring mode (MRM). […] The nebulizing gas flow rate was 2.8 L/min, the drying gas flow rate was 10 L/min, and the heating gas flow rate was 10 L/min. […] The remaining fourteen SD rats were orally administered saline equivalently. Two days after administration, pharmacokinetic experiments were performed. […] Plasma samples were immediately stored at 4°C until analysis. Statistical analyses were conducted using two-way ANOVA and Student’s t-test with GraphPad Prism Version 5 (GraphPad Software, La Jolla, CA, United States). The data are expressed as the means ± standard deviation. […] DAS 3.0 was used to calculate the plasma pharmacokinetic parameters.

Data set [3] is described as follows: Excretion of paeoniflorin in rats (urine, feces, bile). The class given is in vivo, rat. To be noted: normal rats, paeoniflorin 20 mg/kg, excreted form = labelled substance, n = 6.
The nature of data set [4]: Brain distribution of paeoniflorin and benzoic acid in rats. The following applies: at 2 h after oral administration of paeoniflorin 20 mg/kg. The format is in vivo, rat.
The nature of data set [5]: Pharmacokinetics of paeoniflorin in normal SD rats (plasma, LC-MS/MS). The following applies: normal rats, oral paeoniflorin 20 mg/kg, plasma analyte = labelled substance. The class given is in vivo, rat. Here is the method: Chromatography separation was performed using an XSS T3 column (3.5 μm, 2.1 mm × 100 mm, Waters, Milford, MA, United States) with the column temperature maintained at 40°C at a flow rate of 0.4 mL/min. […] The gradient was as follows: 25% eluent B for 2 min; 25–85% B from 2 to 4 min; 85–25% B from 4 to 5 min and held at 25% from 5 to 7 min. The autosampler temperature was set to 4°C. Mass spectrometry was carried out using multiple reaction monitoring mode (MRM). […] The nebulizing gas flow rate was 2.8 L/min, the drying gas flow rate was 10 L/min, and the heating gas flow rate was 10 L/min. […] Plasma samples were immediately stored at 4°C until analysis. The method validation assays were carried out in terms of specificity, linearity, sensitivity, accuracy, precisions, recovery, matrix effect and stability. […] Statistical analyses were conducted using two-way ANOVA and Student’s t-test with GraphPad Prism Version 5 (GraphPad Software, La Jolla, CA, United States). The data are expressed as the means ± standard deviation. […] DAS 3.0 was used to calculate the plasma pharmacokinetic parameters.

Another data set relates to carboxylesterase. Nature of the data set: Effect of BNPP inhibition on the transformation of paeoniflorin in intestinal culture system. The class given is cell-based, rat gut microbiota. The following applies: 24 h, 1 mg/mL paeoniflorin. Here is the method:
The colon contents of six rats were pooled, and 5 g of the sample was transferred to a ziplock bag and then mixed thoroughly with anaerobic medium (100 mL). After mixing completely, the cultures were stored at 37°C and preincubated for 1 h. Then, 10 μL of paeoniflorin (100 mg/mL) was added to fresh rat intestinal microbial culture (990 μL) under anaerobic conditions of N2, with a final concentration of 1 mg/mL of paeoniflorin in the culture system ([Hattori et al., 1988]). The inactivated bacteria solution was used as a negative control. Cultures were incubated at 37°C for 0, 2, 6, 12, and 24 h, respectively. After terminated the reaction with 3 volumes of acetonitrile, samples were vortexed for 30 s and then centrifuged at 16,162 g for 5 min. A total of 100 μL of the supernatant were transferred to a centrifuge tube, centrifuged at 16,162 g for 5 min and filtered through a 0.45 μm microporous membrane. Finally, 5 μL of the filtrate solution was collected for analysis.
Consistent with the above steps, the carboxylesterase inhibitor BNPP (0.1, 1, 3, and 10 mM) was added to the culture system at different concentrations with a final concentration of 1 mg/mL paeoniflorin. Then, the cultures were incubated at 37°C for 0, 2, 6, 12, and 24 h. The intestinal culture system without BNPP was used as a control group.

The mark [6] stands for this setting: PGF rats (antibiotic pretreated).

In the case of `CNCCC(Oc1ccc(C(F)(F)F)cc1)c1ccccc1` (centres unmarked) [fluoxetine, reference compound], the sucrose preference value result in the data set on depressed rats is reported as “significantly higher than that of the model control group”.

With `O=C(O)c1ccccc1` [Benzoic acid, benzoic acid], in data set [1], the “96-h cumulative excretion in feces” value stood at 0.15%. The “96-h cumulative excretion in urine” value in data set [1] is reported as 42.13%. For the same compound, the AUC(0-t) (commonly the area under the concentration-time curve up to a stated or last time point) amounted to 94.8 ± 19.8 ng·h/mL in data set [2] (PGF rats (antibiotic pretreated), read-out: AUC (0-t)); 68.5 ng·h/mL in data set [2] (PGF rats, Figures 3B, 3C, read-out: AUC(0-t) (unit inferred)); 151 ng·h/mL in data set [5] (SD, rat, in vivo, po, 20 mg/kg, Figures 2C, 3B, 3C, read-out: AUC(0-t) (unit inferred)); 151 ng·h/mL in data set [5] (SD, rat, in vivo, po, 20 mg/kg, n = 6, read-out: AUC (0-t)); 151.24 ± 29.59 ng·h/mL in data set [5] (n = 6). Further, the Cmax (in general, the highest concentration seen after dosing) in data set [2] (PGF rats (antibiotic pretreated), read-out: Cmax) was 27.6 ± 2.63 ng/mL; in data set [2] (PGF rats, Figures 3B, 3C, read-out: Cmax (unit inferred)) it was 25.4 ng/mL; in data set [5] (SD, rat, in vivo, po, 20 mg/kg, Figures 2C, 3B, 3C, read-out: Cmax (unit inferred)), 55.6 ng/mL; in data set [5] (SD, rat, in vivo, po, 20 mg/kg, n = 6, read-out: Cmax), 55.6 ± 12.1 ng/mL; in data set [5] (SD, rat, in vivo, po, 20 mg/kg, read-out: Cmax), 55.6 ng/mL. In addition, the AUC(0-inf) – broadly, the area under the concentration-time curve extrapolated to infinity – was found to be 97.2 ± 20.2 ng·h/mL in data set [2] (setting [6]) and 162 ± 40.1 ng·h/mL in data set [5] (SD, rat, in vivo, n = 6). The time of peak concentration (Tmax) (usually the time at which the peak concentration occurs) in data set [2] (setting [6]) is 35.8 ± 14.3 min; in data set [5] (SD, rat, in vivo, n = 6), 47.5 ± 11.3 min. In addition, in data set [3], the “cumulative excretion rate in bile for 60 h” value was “No benzoic acid was detected”. Further, the “detection in SD rat brains” value in data set [4] is given as “considerable number”.

On to `O=[N+]([O-])c1ccc(OP(=O)(O)Oc2ccc([N+](=O)[O-])cc2)cc1` [BNPP, bis-p-nitrophenyl phosphate], for which the “inhibition rate of the conversion of paeoniflorin to benzoic acid” value amounted to 8.2% in the data set on carboxylesterase (BNPP 0.1 mM), 46.8% in the data set on carboxylesterase (BNPP 1 mM), 63.7% in the data set with carboxylesterase (BNPP 3 mM) and 74.9% in the data set on carboxylesterase (BNPP 10 mM).

The values are drawn from publication PMC6435784, “Gut Microbiota-Based Pharmacokinetics and the Antidepressant Mechanism of Paeoniflorin” (Frontiers in Pharmacology, 2019).
